Test results published in patent US6586419B1, “Phototherapeutic inactivation of ocular viruses” (PDT Systems, Inc., priority 1997, dated 2003).
Values joined by “and” are separate entries in the source; they are usually repeats but may differ in a detail not shown here. Identical values can stand only once.

Columns and labels:
cell associated CMV = assay: Inactivation of cell-associated CMV by SnET2 and light (viral infectivity/titer); type: cell-based, cytomegalovirus; details: for viral infectivity (viral titer): LIGHT (52 mW/cm^2, 1.56 J/cm^2)
Experimental: To inactivate virus from a frozen viral stock with SnET2 and light doses, the following procedure was employed. Following light treatment, undiluted virus and drug/virus mixture were diluted 10-fold up to 1:10^6. All dilutions were used to infect sub-confluent, heat-shocked cultures of a cell line plated in tissue cultures of 24 well plate in triplicates. The infected cultures were treated with antibody against the major viral […] protein. An alkaline phosphatase labeled antibody to mouse IgG was then added followed by the alkaline phosphatase substrate. This produced a colored reaction which can be monitored microscopically in positive wells. The infected cells were characterized by a dark purple coloration in the nucleus. Viral titer or viral infectivity was determined by the last viral concentration that gave at least one infected cell per well.

[1] = test system: cell-free Herpes simplex virus (HSV); assay: Inactivation of cell-free HSV by SnET2 and 660 nm light (viral infectivity/titer); type: cell-based
Experimental: The infectivity of cell-free HSV exposed to SnET2 doses ranging from 10 μg/mL to 0.1 μg/mL and 660 nm light doses of 1.56 J/cm^2 are shown in Table 1.
The infectivity of cell-free HSV exposed to 0.1 μg/mL SnET2 and light doses ranging from 1.56 J/cm^2 to 25 J/cm^2 are shown below in FIG. 2.
To inactivate virus from a frozen viral stock with SnET2 and light doses, the following procedure was employed. Following light treatment, undiluted virus and drug/virus mixture were diluted 10-fold up to 1:10^6. All dilutions were used to infect sub-confluent, heat-shocked cultures of a cell line plated in tissue cultures of 24 well plate in triplicates. The infected cultures were treated with antibody against the major viral capside protein. An alkaline phosphatase labeled antibody to mouse IgG was then added followed by the alkaline phosphatase substrate. This produced a colored reaction which can be monitored microscopically in positive wells. The infected cells were characterized by a dark purple coloration in the nucleus. Viral titer or viral infectivity was determined by the last viral concentration that gave at least one infected cell per well.

cell-associated HSV = assay: Inactivation of cell-associated HSV by SnET2 and light (viral infectivity/titer); type: cell-based, Herpes simplex virus; details: for viral infectivity (viral titer): LIGHT (52 mW/cm^2, 1.56 J/cm^2)
[2] = test system: cytomegalovirus (CMV) retinitis; details: AIDS patients with CMV retinitis on anti-HIV and anti-CMV therapy; cited from earlier work
[3] = daily systemic intravenous administration; cited from earlier work

## CCOC(=O)C1=Cc2c3nc(cc4nc(cc5[n-]c(cc6[n-]c2c(C)c6CC)c(C)c5CC)C(C)=C4CC)[C@@H](C)[C@]13CC.[Cl-].[Cl-].[Sn] (racemic) [SnET2, tin ethyl etiopurpurin]
Cell associated CMV; 1 μg/mL, CMV 1:2
  viral infectivity (viral titer): >10^3
Cell associated CMV; 1 μg/mL, CMV 1:10, two values given
  viral infectivity (viral titer): < 10^2 and 10^4
Cell associated CMV; 5 μg/mL, CMV 1:2
  viral infectivity (viral titer): >10^3
Cell associated CMV; 5 μg/mL, CMV 1:10, two values given
  viral infectivity (viral titer): < 10^2 and 10^3
Cell associated CMV; SnET2 and light, cell associated CMV
  inactivation of virus in vitro (summary): complete inactivation
Cell associated CMV; drug dose 1-10 μg/mL, light dose 15.6 J/cm^2
  inactivation (complete inactivation): 2-5 log10
[1]; 0.1 μg/mL, 660 nm LIGHT (26 mW/cm^2, 1.56 J/cm^2)
  viral infectivity (viral titer): 10^3
[1]; 0.1 μg/mL, DARK
  viral infectivity (viral titer): 10^6
  viral infectivity (viral titer), light dose response: 10^6
[1]; 0.1 μg/mL, Light 26 mW/cm^2, 1.56 J/cm^2
  viral infectivity (viral titer), light dose response: 10^3
[1]; 0.1 μg/mL, Light 26 mW/cm^2, 3.12 J/cm^2
  viral infectivity (viral titer), light dose response: <10^3
[1]; 0.1 μg/mL, Light 26 mW/cm^2, 6.24 J/cm^2
  viral infectivity (viral titer), light dose response: <10^2
[1]; 0.1 μg/mL, Light 26 mW/cm^2, 12.5 J/cm^2
  viral infectivity (viral titer), light dose response: <10^1
[1]; 0.1 μg/mL, Light 26 mW/cm^2, 25 J/cm^2
  viral infectivity (viral titer), light dose response: <10^1
[1]; 1 μg/mL, 660 nm LIGHT (26 mW/cm^2, 1.56 J/cm^2)
  viral infectivity (viral titer): <10^1
[1]; 1 μg/mL, DARK
  viral infectivity (viral titer): 10^6
[1]; 10 μg/mL to 0.1 μg/mL, no light
  dark toxicity: No dark toxicity was observed
[1]; 10 μg/mL, 660 nm LIGHT (26 mW/cm^2, 1.56 J/cm^2)
  viral infectivity (viral titer): <10^1
[1]; 10 μg/mL, DARK
  viral infectivity (viral titer): 10^6
[1]; SnET2 and light, cell-free HSV
  inactivation of virus in vitro (summary): complete inactivation
[1]; drug dose 0.1 μg/mL, light dose 1.56 J/cm^2, 660 nm
  inactivation of the virus (partial response): 3 log10
[1]; drug dose 1 μg/mL, light dose 1.56 J/cm^2, 660 nm
  inactivation of the virus (complete inactivation): > 5 log10
[1]; drug dose 10 μg/mL, light dose 1.56 J/cm^2, 660 nm
  inactivation of the virus (complete inactivation): > 5 log10
cell-associated HSV; 1 μg/mL
  viral infectivity (viral titer): 10^3
cell-associated HSV; 5 μg/mL
  viral infectivity (viral titer): <10^3
cell-associated HSV; SnET2 and light, cell associated HSV
  inactivation of virus in vitro (summary): complete inactivation

## O=C(O)P(=O)(O)O [foscarnet]
[2]
  median survival: 12.6 months
[3]
  systemic toxicity: causing renal toxicity

## Nc1nc(O)c2ncn(COC(CO)CO)c2n1 [ganciclovir]
[2]
  median survival: 8.5 months
[3]
  systemic toxicity: suppressing the bone marrow

## Nc1nc2c(ncn2COCCO)c(=O)[nH]1 [anywhere, acyclovir]
[3]
  systemic toxicity: causing renal toxicity
